Patent publication US20140323543A1, “Treatment of Prostate Cancer with eIF4E Antisense Compounds” (priority 2013, published 2014)
Marks after values point to notes of the source that are not given here. In the oligonucleotide strings, read from the 5' end, every base follows the letter of its sugar. An asterisk marks phosphorothioate; unmarked linkages are phosphodiester. Other units and linkages are bracketed, terminal groups are in braces. A string of capitals states the bases alone. e = 2'-O-(2-methoxyethyl) (MOE); [5mC] = 5-methylcytosine; d = 2'-deoxy (DNA)

Legend:
Format in all cases: in vivo
[1] = test system: MDA-231 Breast Cancer Xenograft; test: MDA-231 breast cancer xenograft tumor volume in mice; conditions: for Percent Reduction in Mean Tumor Volumes (observed): Breast MDA-231 Day 33, vs. Vehicle Control; for Percent Reduction in Mean Tumor Volumes (observed) / Mean Tumor Volume: ASO 50 mg/kg iv; for Mean Tumor Volume: in mm³
Method: (§1) Xenograft studies are carried out as described in Graff et al. (2005) Cancer Res. 65:7462-7469. Five million human cancer cells representing non-small cell lung cancer (line A549; ATCC, accession no. CCL-185), hormone refractory prostate cancer (line PC-3; ATCC, accession no. CRL-1435), and ER-/PR-HER2-breast cancer (line MDA-231; ATCC, accession no. HTB-26) are injected subcutaneously in the flank of 6-8 week old, athymic nude mice (Harlan, Indianapolis, Ind.) in a 1:1 mixture of serum-free growth medium and matrigel (Becton Dickinson, Bedford, Mass., catalogue #354234). Mice are monitored daily for palpable tumors.
(§2) When tumor volumes reach ˜50-100 mm^3, mice are randomized to treatment groups (Graff et al. (2007) J. Clin. Invest. 117:2638-48). Body weight is monitored each time tumors are measured.
(§3) For treatment, all mice are injected intravenously with the eIF-4E ASO in saline in a total volume of 200 μl. The ASO consists of the nucleotide sequence 5′-[…]-3′ (SEQ ID NO:1), in which every internucleoside linkage is a phosphorothioate linkage, nucleotides 1-5 and 16-20 reading from the 5′ end to the 3′ end each comprise a 2′-O-(2-methoxyethyl) sugar, nucleotides 6-15 are 2′-deoxynucleotides, every cytosine residue is a 5-methylcytosine, and which is in the form of a sodium salt. The mice are first injected with an initial loading dose of 50 mg/kg ASO for 3 consecutive days, followed by 50 mg/kg thrice weekly thereafter.
(§4) Taxotere® (docetaxel) dosing begins 8 days after the first ASO dose to allow time for reduction of eIF-4E protein expression. Mice are dosed with 2.5 or 10 mg/kg Taxotere® (Sanofi-Aventis) intraperitoneally (IP) in 1% ethanol in 5% dextrose water in a volume of 200 μl once weekly for 3 weeks.
(§5) Tumor volumes are calculated measuring the largest (L) and smallest (W) diameters with a caliper. The formula is: Volume=L×W^2×0.534. Tumor volume data are transformed to a log scale to equalize variance across time and treatment groups. The log volume data are analyzed with a two-way repeated measures analysis of variance by time and treatment using SAS PROC MIXED software (SAS Institute Inc, Cary, N.C.) using the spatial power covariance structure. Treatment groups are compared to the control group at each time point and overall. The data may be plotted as means and standard errors for each treatment group versus time. Additivity is assessed in two ways: (1) as an overall interaction effect between the ASO and Taxotere® in the repeated measures analysis, and (2) by using the Bliss Independence method on the final day of the study (C.I. Bliss (1939) Ann. Appl. Biol. 26:585-615). These two methods yield the same results.
(§6) The observed percent reductions in mean tumor volume at the conclusion of each study resulting from the various treatments are shown in Table 4. These are calculated as: […]
(§7) The “Expected if Additive” percent reductions in mean tumor volume shown in Table 4 are calculated using the Bliss Independence definition of additivity, as follows: […]

[2] = test system: PC-3 Hormone-Refractory Prostate Cancer Xenograft; test: PC-3 hormone-refractory prostate cancer xenograft tumor volume in mice; conditions: ASO 50 mg/kg iv; for Mean Tumor Volume: in mm³; for Percent Reduction in Mean Tumor Volumes (observed): Prostate PC3 Day 35, vs. Vehicle Control
Method: as §1, §2, §3, §4, §5, §6, §7

[3] = test system: A549 Non-Small Cell Lung Cancer Xenograft; test: A549 non-small cell lung cancer xenograft tumor volume in mice; set-up: key to Mean Tumor Volume: tumor volume in mm^3; conditions: ASO 50 mg/kg iv; for Mean Tumor Volume: in mm³; for Percent Reduction in Mean Tumor Volumes (observed): NSCLC A 549 Day 50, vs. Vehicle Control, Taxotere 10 mg/kg IP
Method: as §1, §2, §3, §4, §5, §6, §7

[4] = Day 5, Taxotere 2.5 mg/kg IP once weekly from 8 days after first ASO dose, tumor volumes in mm^3
[5] = Day 7, Taxotere 10 mg/kg IP once weekly from 8 days after first ASO dose, tumor volumes in mm^3
[6] = Day 7, docetaxel 10 mg/kg IP once weekly from 8 days after first ASO dose, tumor volumes in mm^3

CC(=O)O[C@@]12CO[C@@H]1C[C@H](O)[C@@]1(C)C(=O)[C@H](O)C3=C(C)[C@@H](OC(=O)[C@H](O)[C@@H](NC(=O)OC(C)(C)C)c4ccccc4)C[C@@](O)([C@@H](OC(=O)c4ccccc4)[C@H]21)C3(C)C [Docetaxel, (2R,3S)—N-carboxy-3-phenylisoseine,N-tert-butyl ester, 13-ester with 5β-20-epoxy-1,2α,4,7β,10β,13α-hexahydroxytax-11-en-9-one 4-acetate 2-benzoate, trihydrate, reference compound]
Percent Reduction in Mean Tumor Volumes (observed) ([1]; Taxotere 2.5 mg/kg IP): −1.4%
Mean Tumor Volume [1, 4]: 78.7
Mean Tumor Volume ([1]; Day 8, Taxotere 2.5 mg/kg IP): 130.1
Mean Tumor Volume ([1]; Day 12, Taxotere 2.5 mg/kg IP): 180.9
Mean Tumor Volume ([1]; Day 15, Taxotere 2.5 mg/kg IP): 221.0
Mean Tumor Volume ([1]; Day 19, Taxotere 2.5 mg/kg IP): 270.3
Mean Tumor Volume ([1]; Day 22, Taxotere 2.5 mg/kg IP): 333.9
Mean Tumor Volume ([1]; Day 26, Taxotere 2.5 mg/kg IP): 384.9
Mean Tumor Volume ([1]; Day 29, Taxotere 2.5 mg/kg IP): 450.4
Mean Tumor Volume ([1]; Day 33, Taxotere 2.5 mg/kg IP): 529.6
Mean Tumor Volume [2, 5]: 46.3
Mean Tumor Volume ([2]; Day 12, Taxotere 10 mg/kg IP): 106.8
Mean Tumor Volume ([2]; Day 15, Taxotere 10 mg/kg IP): 134.7
Mean Tumor Volume ([2]; Day 19, Taxotere 10 mg/kg IP): 164.8
Mean Tumor Volume ([2]; Day 22, Taxotere 10 mg/kg IP): 171.7
Mean Tumor Volume ([2]; Day 27, Taxotere 10 mg/kg IP): 157.4
Mean Tumor Volume ([2]; Day 29, Taxotere 10 mg/kg IP): 162.7
Mean Tumor Volume ([2]; Day 33, Taxotere 10 mg/kg IP): 161.6
Mean Tumor Volume ([2]; Day 35, Taxotere 10 mg/kg IP): 167.0
Percent Reduction in Mean Tumor Volumes (observed) ([2]; Taxotere 10 mg/kg IP): −69.5%*
Mean Tumor Volume [3, 6]: 49.7
Mean Tumor Volume ([3]; Day 10, docetaxel 10 mg/kg IP): 56.7
Mean Tumor Volume ([3]; Day 15, docetaxel 10 mg/kg IP): 114.8
Mean Tumor Volume ([3]; Day 18, docetaxel 10 mg/kg IP): 70.0
Mean Tumor Volume ([3]; Day 22, docetaxel 10 mg/kg IP): 135.8
Mean Tumor Volume ([3]; Day 25, docetaxel 10 mg/kg IP): 170.1
Mean Tumor Volume ([3]; Day 29, docetaxel 10 mg/kg IP): 257.0
Mean Tumor Volume ([3]; Day 32, docetaxel 10 mg/kg IP): 261.5
Mean Tumor Volume ([3]; Day 36, docetaxel 10 mg/kg IP): 290.0
Mean Tumor Volume ([3]; Day 39, docetaxel 10 mg/kg IP): 282.3
Mean Tumor Volume ([3]; Day 43, docetaxel 10 mg/kg IP): 342.6
Mean Tumor Volume ([3]; Day 46, docetaxel 10 mg/kg IP): 310.2
Mean Tumor Volume ([3]; Day 50, docetaxel 10 mg/kg IP): 343.8
Percent Reduction in Mean Tumor Volumes (observed) [3]: −29.6%

d(P-thio)([2′-O-(2-methoxyethyl)]m5rU-([2′-O-(2-methoxyethyl)]rG-([2′-O-(2-methoxyethyl)]m5rU-([2′-O-(2-methoxyethyl)]m5rC-([2′-O-(2-methoxyethyl)]rA-T-A-T-T-m5C-m5C-T-G-G-A-([2′-O-(2-methoxyethyl)]m5rU-([2′-O-(2-methoxyethyl)]m5rC-([2′-O-(2-methoxyethyl)]m5rC-([2′-O-(2-methoxyethyl)]m5rU-([2′-O-(2-methoxyethyl)]m5rU) (antisense eT*eG*eT*e[5mC]*eA*dT*dA*dT*dT*d[5mC]*d[5mC]*dT*dG*dG*dA*eT*e[5mC]*e[5mC]*eT*eT) [eIF-4E ASO]
Percent Reduction in Mean Tumor Volumes (observed) ([1]; Taxotere 2.5 mg/kg IP): +16.6%
Mean Tumor Volume [1, 4]: 78.9
Mean Tumor Volume ([1]; Day 8, Taxotere 2.5 mg/kg IP): 129.4
Mean Tumor Volume ([1]; Day 12, Taxotere 2.5 mg/kg IP): 166.6
Mean Tumor Volume ([1]; Day 15, Taxotere 2.5 mg/kg IP): 221.0
Mean Tumor Volume ([1]; Day 19, Taxotere 2.5 mg/kg IP): 268.2
Mean Tumor Volume ([1]; Day 22, Taxotere 2.5 mg/kg IP): 356.3
Mean Tumor Volume ([1]; Day 26, Taxotere 2.5 mg/kg IP): 435.9
Mean Tumor Volume ([1]; Day 29, Taxotere 2.5 mg/kg IP): 574.1
Mean Tumor Volume ([1]; Day 33, Taxotere 2.5 mg/kg IP): 626.2
Effect on mean tumor volume (in words) ([1]; breast cancer model, ASO alone): non-statistically significant increase
Mean Tumor Volume [2, 5]: 49.8
Mean Tumor Volume ([2]; Day 12, Taxotere 10 mg/kg IP): 88.3
Mean Tumor Volume ([2]; Day 15, Taxotere 10 mg/kg IP): 130.3
Mean Tumor Volume ([2]; Day 19, Taxotere 10 mg/kg IP): 159.0
Mean Tumor Volume ([2]; Day 22, Taxotere 10 mg/kg IP): 218.8
Mean Tumor Volume ([2]; Day 27, Taxotere 10 mg/kg IP): 294.5
Mean Tumor Volume ([2]; Day 29, Taxotere 10 mg/kg IP): 343.9
Mean Tumor Volume ([2]; Day 33, Taxotere 10 mg/kg IP): 424.0
Mean Tumor Volume ([2]; Day 35, Taxotere 10 mg/kg IP): 491.2
Percent Reduction in Mean Tumor Volumes (observed) ([2]; Taxotere 10 mg/kg IP): −10.2%
Mean Tumor Volume [3, 6]: 52.7
Mean Tumor Volume ([3]; Day 10, docetaxel 10 mg/kg IP): 69.4
Mean Tumor Volume ([3]; Day 15, docetaxel 10 mg/kg IP): 113.7
Mean Tumor Volume ([3]; Day 18, docetaxel 10 mg/kg IP): 79.1
Mean Tumor Volume ([3]; Day 22, docetaxel 10 mg/kg IP): 139.5
Mean Tumor Volume ([3]; Day 25, docetaxel 10 mg/kg IP): 149.0
Mean Tumor Volume ([3]; Day 29, docetaxel 10 mg/kg IP): 220.1
Mean Tumor Volume ([3]; Day 32, docetaxel 10 mg/kg IP): 249.5
Mean Tumor Volume ([3]; Day 36, docetaxel 10 mg/kg IP): 256.6
Mean Tumor Volume ([3]; Day 39, docetaxel 10 mg/kg IP): 239.1
Mean Tumor Volume ([3]; Day 43, docetaxel 10 mg/kg IP): 313.2
Mean Tumor Volume ([3]; Day 46, docetaxel 10 mg/kg IP): 292.3
Mean Tumor Volume ([3]; Day 50, docetaxel 10 mg/kg IP): 404.0
Percent Reduction in Mean Tumor Volumes (observed) [3]: −17.3%
